Test results: ChEMBL document CHEMBL1201862, “PubChem BioAssay data set” (2004)
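Results reflect a 48-hour exposure of cells in 96-well plates to compound at five concentrations. Abbreviation: GI50, concentration required for 50% inhibition of growth.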 Active and inactive are the calls of the source. Cut-off read from the data, not from the text of the source: active = GI50 up to about 1.1 µM and inactive = higher.

What was measured:
Experiment in all cases: inhibition of tumour cell growth, NCI panel, 48 h
SK-OV-3 = tested on: SK-OV-3
UACC-257 = tested on: UACC-257
LXFL 529 = tested on: LXFL 529
NCI-H522 = tested on: NCI-H522
MOLT-4 = tested on: MOLT-4
NCI-H460 = tested on: NCI-H460
EKVX = tested on: EKVX
DMS-114 = tested on: DMS-114
OVCAR-5 = tested on: OVCAR-5
SF-295 = tested on: SF-295
CCRF-CEM = tested on: CCRF-CEM
KM-20L2 = tested on: KM-20L2
HCT-116 = tested on: HCT-116
HOP-92 = tested on: HOP-92
SR = tested on: SR
MCF7 = tested on: MCF7
NCI/ADR-RES = tested on: NCI/ADR-RES
DU-145 = tested on: DU-145
BT-549 = tested on: BT-549
MDA-N = tested on: MDA-N

Compound | GI50 (SK-OV-3) | GI50 (UACC-257) | GI50 (LXFL 529) | GI50 (NCI-H522) | GI50 (MOLT-4) | GI50 (NCI-H460) | GI50 (EKVX) | GI50 (DMS-114) | GI50 (OVCAR-5) | GI50 (SF-295) | GI50 (CCRF-CEM) | GI50 (KM-20L2) | GI50 (HCT-116) | GI50 (HOP-92) | GI50 (SR) | GI50 (MCF7) | GI50 (NCI/ADR-RES) | GI50 (DU-145) | GI50 (BT-549) | GI50 (MDA-N)
O=c1cccccc1NCCCCCCNc1cccccc1=O | > 100 µM (inactive) | > 100 µM (inactive) | > 100 µM (inactive) | > 100 µM (inactive) | > 100 µM (inactive) | > 100 µM (inactive) | > 100 µM (inactive) | > 100 µM (inactive) | > 100 µM (inactive) | > 100 µM (inactive) | > 100 µM (inactive) | > 100 µM (inactive) | > 100 µM (inactive) | – | – | – | – | – | – | –
CCOC(=O)C1=C(NC)OCC1=O | > 100 µM (inactive) | > 100 µM (inactive) | > 100 µM (inactive) | > 100 µM (inactive) | – | > 100 µM (inactive) | > 100 µM (inactive) | > 100 µM (inactive) | > 100 µM (inactive) | > 100 µM (inactive) | > 100 µM (inactive) | > 100 µM (inactive) | > 100 µM (inactive) | > 100 µM (inactive) | – | – | – | – | – | –
O=C(Cc1ccccc1)NN1C(=O)C(Cl)C1c1ccc(Cl)cc1 (stereo unspecified) | > 100 µM (inactive) | 86.3 µM (inactive) | > 100 µM (inactive) | > 100 µM (inactive) | 30.6 µM (inactive) | > 100 µM (inactive) | > 100 µM (inactive) | > 100 µM (inactive) | > 100 µM (inactive) | > 100 µM (inactive) | > 100 µM (inactive) | > 100 µM (inactive) | > 100 µM (inactive) | – | 24.1 µM (inactive) | – | – | – | – | –
O=C1c2ccccc2CCCCCCCCCCC12OCCCO2 | 80.5 µM (inactive) | 24 µM (inactive) | 58.9 µM (inactive) | 24.5 µM (inactive) | 17.7 µM (inactive) | 26.4 µM (inactive) | – | 12.2 µM (inactive) | 26.7 µM (inactive) | 34.7 µM (inactive) | 25.3 µM (inactive) | 22.9 µM (inactive) | 16 µM (inactive) | – | – | – | – | – | – | –
S=C(N/N=C/c1ccccc1)NC12CC3CC(CC(C3)C1)C2 | > 100 µM (inactive) | 26.1 µM (inactive) | 64.7 µM (inactive) | 29.5 µM (inactive) | 12.3 µM (inactive) | 39.5 µM (inactive) | 71.4 µM (inactive) | – | 63.7 µM (inactive) | 41 µM (inactive) | 19.6 µM (inactive) | 7.08 µM (inactive) | 29.5 µM (inactive) | 6.18 µM (inactive) | 18.2 µM (inactive) | – | – | – | – | –
CC(C)Cc1ccc(C(C)C(=O)N2CCN(/C=C/c3ccccc3)CC2)cc1 (stereo unspecified) | 16.6 µM (inactive) | 17.3 µM (inactive) | – | 11.6 µM (inactive) | 6.15 µM (inactive) | 16.1 µM (inactive) | 15.8 µM (inactive) | 10.8 µM (inactive) | 13.9 µM (inactive) | 15.9 µM (inactive) | 13 µM (inactive) | 15.5 µM (inactive) | 13.4 µM (inactive) | 13.1 µM (inactive) | – | 16 µM (inactive) | 13.1 µM (inactive) | – | – | –
O=c1cc[nH]c2c1ccc1ncccc12 | > 100 µM (inactive) | > 100 µM (inactive) | > 100 µM (inactive) | > 100 µM (inactive) | > 100 µM (inactive) | > 100 µM (inactive) | > 100 µM (inactive) | > 100 µM (inactive) | > 100 µM (inactive) | – | > 100 µM (inactive) | > 100 µM (inactive) | > 100 µM (inactive) | – | > 100 µM (inactive) | – | – | – | – | –
CC(C)OC(=O)c1cc(NC(=O)C(C)(C)C)c(F)cc1Cl | > 100 µM (inactive) | > 100 µM (inactive) | > 100 µM (inactive) | > 100 µM (inactive) | > 100 µM (inactive) | > 100 µM (inactive) | > 100 µM (inactive) | > 100 µM (inactive) | > 100 µM (inactive) | > 100 µM (inactive) | > 100 µM (inactive) | > 100 µM (inactive) | > 100 µM (inactive) | > 100 µM (inactive) | – | – | – | – | – | –
COc1ccc(C=O)c(NC(=O)C(C)C)c1 | > 100 µM (inactive) | 27.2 µM (inactive) | 44.9 µM (inactive) | 15.9 µM (inactive) | 21.3 µM (inactive) | > 100 µM (inactive) | 31.6 µM (inactive) | 24.4 µM (inactive) | > 100 µM (inactive) | 32.7 µM (inactive) | > 10 µM (inactive) | 51.5 µM (inactive) | 15.8 µM (inactive) | 18.2 µM (inactive) | – | – | – | – | – | –
O=c1cc2ccccc2nn1Cc1ccccc1Cl | > 100 µM (inactive) | > 100 µM (inactive) | – | – | – | > 100 µM (inactive) | > 100 µM (inactive) | 67.6 µM (inactive) | > 100 µM (inactive) | > 100 µM (inactive) | > 100 µM (inactive) | > 100 µM (inactive) | > 100 µM (inactive) | 71.9 µM (inactive) | – | – | – | – | – | –
O=C(O)C12CC3(C(=O)O)CC(C(=O)O)(CC(C(=O)O)(C1)C3=O)C2=O | > 100 µM (inactive) | > 100 µM (inactive) | – | > 100 µM (inactive) | > 100 µM (inactive) | > 100 µM (inactive) | > 100 µM (inactive) | – | > 100 µM (inactive) | > 100 µM (inactive) | > 100 µM (inactive) | – | > 100 µM (inactive) | > 100 µM (inactive) | > 100 µM (inactive) | > 100 µM (inactive) | > 100 µM (inactive) | > 100 µM (inactive) | > 100 µM (inactive) | > 100 µM (inactive)
COC(=O)c1ccc(/N=N/N(C)COc2ccc(Br)cc2)cc1 | > 100 µM (inactive) | > 71.8 µM (inactive) | – | 43.5 µM (inactive) | 26.6 µM (inactive) | 40.6 µM (inactive) | > 75.2 µM (inactive) | 55.7 µM (inactive) | > 83.8 µM (inactive) | > 60.8 µM (inactive) | 34 µM (inactive) | > 81.1 µM (inactive) | > 100 µM (inactive) | > 53 µM (inactive) | – | > 58.3 µM (inactive) | > 100 µM (inactive) | – | – | –
CCCNC(=O)c1cc(NC(=O)c2cc(NC(=O)CCS(=O)(=O)OC)cn2C)cn1C | 9.55 µM (inactive) | 24 µM (inactive) | – | 1.87 µM (inactive) | 17.5 µM (inactive) | > 100 µM (inactive) | 51.1 µM (inactive) | – | 40.9 µM (inactive) | > 69.8 µM (inactive) | 0.902 µM (active) | – | 12.8 µM (inactive) | 3.76 µM (inactive) | > 100 µM (inactive) | 20.5 µM (inactive) | > 100 µM (inactive) | 24.2 µM (inactive) | 3.68 µM (inactive) | 20.9 µM (inactive)
CCOc1ccc(C2=C(Cl)c3cc(OC)c(OC)cc3C2Cl)cc1 (stereo unspecified) | > 100 µM (inactive) | – | 26.8 µM (inactive) | 17.2 µM (inactive) | 19.5 µM (inactive) | 29.3 µM (inactive) | 66.7 µM (inactive) | 18.6 µM (inactive) | – | 35 µM (inactive) | 25.2 µM (inactive) | 38.8 µM (inactive) | – | 25.4 µM (inactive) | – | – | – | – | – | –
Cc1nc2sc3cccc(Cl)c3n2c(=O)c1/N=N/c1ccc(Cl)cc1 | > 100 µM (inactive) | 98.6 µM (inactive) | – | 45.7 µM (inactive) | 44.9 µM (inactive) | > 100 µM (inactive) | 38.5 µM (inactive) | – | > 100 µM (inactive) | 53.1 µM (inactive) | > 100 µM (inactive) | – | 88.1 µM (inactive) | 46.6 µM (inactive) | > 100 µM (inactive) | 87.5 µM (inactive) | > 100 µM (inactive) | > 100 µM (inactive) | 93.8 µM (inactive) | > 100 µM (inactive)
CC12CCC(C(=O)N3CC=CCC3)(OC1=O)C2(C)C (stereo unspecified) | > 100 µM (inactive) | > 100 µM (inactive) | – | > 100 µM (inactive) | > 100 µM (inactive) | > 100 µM (inactive) | > 100 µM (inactive) | > 100 µM (inactive) | > 100 µM (inactive) | > 100 µM (inactive) | > 82.8 µM (inactive) | > 100 µM (inactive) | > 100 µM (inactive) | > 100 µM (inactive) | – | > 100 µM (inactive) | > 100 µM (inactive) | – | – | –
Cc1nnc(N)nc1C/C=C/C(Sc1ccc(Cl)cc1)c1ccccc1 (stereo unspecified) | 3.86 µM (inactive) | 4.22 µM (inactive) | – | 1.81 µM (inactive) | 2.56 µM (inactive) | 3.41 µM (inactive) | 3.64 µM (inactive) | – | 4.89 µM (inactive) | 1.91 µM (inactive) | 0.235 µM (active) | – | 3.59 µM (inactive) | 5.68 µM (inactive) | 3.35 µM (inactive) | 3.95 µM (inactive) | 4.69 µM (inactive) | 8.02 µM (inactive) | 2.13 µM (inactive) | 6.21 µM (inactive)
CC[C@@H](C)[C@H](NC(=O)[C@H](Cc1ccccc1)NCC(F)(F)F)C(=O)OC(C)(C)C | > 100 µM (inactive) | 81.5 µM (inactive) | – | > 100 µM (inactive) | 67.3 µM (inactive) | > 100 µM (inactive) | > 100 µM (inactive) | – | > 100 µM (inactive) | > 100 µM (inactive) | 74.8 µM (inactive) | – | > 100 µM (inactive) | > 100 µM (inactive) | > 100 µM (inactive) | > 100 µM (inactive) | > 100 µM (inactive) | > 100 µM (inactive) | > 100 µM (inactive) | > 100 µM (inactive)
Cc1ccc(C(=O)/C=C2/Nc3ccccc3NC2=O)c(C)c1 | 7.05 µM (inactive) | 42.1 µM (inactive) | – | 7.73 µM (inactive) | 45.5 µM (inactive) | 13.2 µM (inactive) | 8.77 µM (inactive) | – | 44.7 µM (inactive) | 9.46 µM (inactive) | 62.5 µM (inactive) | – | 11.8 µM (inactive) | 3.04 µM (inactive) | 29.4 µM (inactive) | 13.3 µM (inactive) | 7.89 µM (inactive) | 30.1 µM (inactive) | 35.4 µM (inactive) | 17.5 µM (inactive)
